ChEMBL document CHEMBL4184230, “Design, synthesis and biological evaluation of novel pyrazolo-oxothiazolidine derivatives as antiproliferative agents against human lung cancer cell line A549” (Bioorg Med Chem Lett, 2018)
Converted amounts (≈) assume the structure as drawn.

Test system: A549
Assay: Antiproliferative activity against human A549 cells incubated for 96 hrs by MTT assay
Assay type: functional, cell-based
Conditions: A549, 96 h

Structure (SMILES): COC(=O)/C=C1/SC(N2N=C(c3cc4ccccc4o3)CC2c2ccc(OC)c(OC)c2)=NC1=O (stereo unspecified)
- IC50: 0.967 µg/mL (≈ 1.97 µM)

Structure (SMILES): CCOC(=O)/C=C1/SC(N2N=C(c3cc4ccccc4o3)CC2c2ccc(OC)cc2)=NC1=O (stereo unspecified)
- IC50: 1.21 µg/mL (≈ 2.54 µM)

Structure (SMILES): CCOC(=O)/C=C1/SC(N2N=C(c3cc4ccccc4o3)CC2c2ccc(Cl)cc2)=NC1=O (stereo unspecified)
- IC50: > 5 µg/mL

Structure (SMILES): COC(=O)/C=C1/SC(N2N=C(c3cc4ccccc4o3)CC2c2cccc(Br)c2)=NC1=O (stereo unspecified)
- IC50: 4.29 µg/mL (≈ 8.41 µM)

Structure (SMILES): CCOC(=O)/C=C1/SC(N2N=C(c3cc4ccccc4o3)CC2c2cccc(Br)c2)=NC1=O (stereo unspecified)
- IC50: > 5 µg/mL

Structure (SMILES): CCOC(=O)/C=C1/SC(N2N=C(c3cc4ccccc4o3)CC2c2ccc(F)cc2)=NC1=O (stereo unspecified)
- IC50: 0.93 µg/mL (≈ 2.01 µM)

Structure (SMILES): COC(=O)/C=C1/SC(N2N=C(c3cc4ccccc4o3)CC2c2ccc(Cl)cc2)=NC1=O (stereo unspecified)
- IC50: 1.08 µg/mL (≈ 2.31 µM)

Structure (SMILES): COC(=O)/C=C1/SC(N2N=C(c3cc4ccccc4o3)CC2c2ccc(F)cc2)=NC1=O (stereo unspecified)
- IC50: 0.808 µg/mL (≈ 1.8 µM)

Structure (SMILES): COC(=O)/C=C1/SC(N2N=C(c3cc4ccccc4o3)CC2c2ccc(OC)cc2)=NC1=O (stereo unspecified)
- IC50: 2.44 µg/mL (≈ 5.3 µM)

Structure (SMILES): CCOC(=O)/C=C1/SC(N2N=C(c3cc4ccccc4o3)CC2c2ccc(OC)c(OC)c2)=NC1=O (stereo unspecified)
- IC50: 3.42 µg/mL (≈ 6.76 µM)

Structure (SMILES): CNC(=O)c1cc(Oc2ccc(NC(=O)Nc3ccc(Cl)c(C(F)(F)F)c3)cc2)ccn1 [SORAFENIB]
- IC50: 3.78 µg/mL (≈ 8.13 µM)
